Columns and labels:
Exo III = Exo III (Escherichia coli, UniProt P09030); settings: 0.5 U EXO III
Method: 0.5 U EXO III was added into each reaction and incubated at 37° C. for 10 minutes to release fluorescence signal. Reaction mixtures were incubated at 50° C. for additional 30 min to ensure the complete release of 6-FAM conjugated unrepaired DNA substrates. EDTA was added into each reaction at a final concentration of 50 mM to terminate the reactions. Fluorescence readings were measured at excitation wavelength of 485±20 nm and emission wavelength of 528±20 nm on Synergy HTX Plate Reader. Data were exported for statistical analysis. The fluorescence reading of each well were adjusted by subtracting background reading signals from a control containing substrate […]. Normalized fluorescence data were averaged and plotted with corresponding statistical errors.

[1] = test system: prostate cancer (LNCaP) cell extracts; assay: BER capacity of prostate cancer cell extracts (fluorescence assay); assay type: biochemical, human; settings: 25 μg cell extracts, inhibitor 200 μM, 37° C. 30 minutes; FIG. 7
Method: Cell pellets were re-suspended in lysis buffer that contained 10 mM Tris-HCl, pH 7.8, 200 mM KCl, 1 mM EDTA, 20% glycerol, 0.1% Nonidet P-40, 1 mM DTT with proteinase inhibitors (Roche Diagnostics Corporation, Indianapolis, Ind.). Cell suspension was subsequently subjected to rotation at 4° C. for 2 hours. After rotation, cell lysates were centrifuged at 14,000 rpm at 4° C. for 30 minutes to remove cell debris. The supernatant was recovered and further dialyzed into BER reaction buffer containing 50 mM Tris-HCl, pH 7.5, 50 mM KCl, 0.1 mM EDTA, 0.1 mg/ml bovine serum albumin, and 0.01% Nonidet P-40. Protein concentration of cell lysates was determined by Bradford assay. Cell lysates were aliquoted and stored at −80° C. for subsequent assay.
Substrates (25 nM) were pre-incubated with 25 nM purified APE1 at 37° C. for 15 minutes, and completely converted into ssDNA break intermediates for subsequent BER reactions. In vitro BER of a THF base lesion was performed by incubating APE1 precut substrate with 25 μg cell extracts in 10 μl-reaction mixtures that contained BER reaction buffer with 5 mM Mg^2+, 50 μM dNTP and 2 mM ATP in the absence or presence of inhibitors. Reaction mixtures were assembled on ice and incubated at 37° C. for 30 minutes.
10 μl-reaction mixtures were then transferred to […] black plates (Thermo Fisher Scientific, Pittsburgh, Pa.) and subjected to fluorescence reading. Each substrates/lysate/inhibitor combination was run in triplicate.
[…] plates were read at an excitation wavelength of 485±20 nm and an emission wavelength of 528±20 nm on a Synergy HTX Plate Reader (Bio-Tek, Winooski, Vt.). Data were exported to Excel for statistical analysis.
The fluorescence reading of each well needs to be abstracted by the reading from the well with 10 μl-BER reaction buffer alone before further data analysis. Normalized fluorescence data were averaged and plotted as “Average±Standard Deviation.” […]

Chain of Exo III (P09030 whole entry): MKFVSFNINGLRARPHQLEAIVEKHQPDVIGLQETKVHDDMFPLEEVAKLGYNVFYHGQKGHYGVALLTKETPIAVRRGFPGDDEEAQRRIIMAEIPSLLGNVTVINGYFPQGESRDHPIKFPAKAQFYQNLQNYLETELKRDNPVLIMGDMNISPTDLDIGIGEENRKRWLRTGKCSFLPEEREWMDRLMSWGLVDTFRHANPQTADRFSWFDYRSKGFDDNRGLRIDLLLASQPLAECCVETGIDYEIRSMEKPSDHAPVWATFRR

Compound | inhibitory effects on Exo III activity (Exo III) | effects on reducing BER capacity of prostate cancer (LNCaP) cell extracts [1]
Cc1cc(S(=O)(=O)Nc2n[nH]c(Nc3ccc4ccccc4c3)n2)c(S)cc1Cl [NSC-666719] | do not exhibit any inhibitory effects | not significant
Cc1cc(S(=O)(=O)Nc2n[nH]c(Nc3ccc(Cl)cc3)n2)c(S)cc1Cl [NSC-666715] | do not exhibit any inhibitory effects | not significant
NC1=NC(=O)N(C2CC(O)C(COP(=O)(O)O)O2)C(I)C1 (stereo not drawn) [NSC-124854] | do not exhibit any inhibitory effects | not significant

— US9809843B1, “High throughput measurement of DNA base lesion repair capacity” (THE FLORIDA INTERNATIONAL UNIVERSITY BOARD OF TRUSTEES, priority 2016, dated 2017)
